Assay results published in ChEMBL document CHEMBL3526113, “Control and measurement of plasma pH in equilibrium dialysis: influence on drug plasma protein binding” (Drug Metab Dispos, 2011).

What was measured:
[1] = Unbound fraction in plasma (unknown origin) under normal atmospheric condition at pH 7.72 after 6 hrs by equilibrium dialysis method; format: ADME, cell-free
[2] = Unbound fraction in plasma (unknown origin) at pH 7.63 after 6 hrs by equilibrium dialysis method in presence of 5% CO2; format: ADME, cell-free
[3] = Unbound fraction in plasma (unknown origin) at pH 7.4 after 6 hrs by equilibrium dialysis method in presence of 5% CO2; format: ADME, cell-free
[4] = Unbound fraction in plasma (unknown origin) under normal atmospheric condition at pH 7.22 after 6 hrs by equilibrium dialysis method; format: ADME, cell-free
[5] = Drug recovery in plasma (unknown origin); format: ADME, cell-free
[6] = Dissociation constant, pKa of the compound; format: physicochemical

| SMILES | fraction unbound at 6 h [1] | fraction unbound at 6 h [2] | fraction unbound at 6 h [3] | fraction unbound at 6 h [4] | Compound recovery [5] [%] | pKa [6] |
| --- | --- | --- | --- | --- | --- | --- |
| CCN(CC)C(=O)C1(c2ccccc2)CC1CN (stereo not given) | 0.828 | 0.777 | 0.837 | 0.809 | > 70 | 9.7 |
| COc1ccc(CCN(C)CCCC(C#N)(c2ccc(OC)c(OC)c2)C(C)C)cc1OC (stereo not given) |  |  |  |  | > 70 |  |
| N[C@@H]1C[C@H]1c1ccccc1.N[C@H]1C[C@@H]1c1ccccc1 (racemic) [TRANYLCYPROMINE] | 0.49 | 0.53 | 0.612 | 0.63 | > 70 | 8.2 |
| O=C1CC2(CCCC2)CC(=O)N1CCCCN1CCN(c2ncccn2)CC1 [BUSPIRONE] |  |  |  |  | > 70 | 7.3 |
| NC(=O)N1c2ccccc2C=Cc2ccccc21 [CARBAMAZEPINE] | 0.299 | 0.288 | 0.291 | 0.303 | > 70 |  |
| CCn1nc(C(=O)O)c(=O)c2cc3c(cc21)OCO3 [CINOXACIN] | 0.266 | 0.23 | 0.214 | 0.251 | > 70 | 4.7 |
| CN1CCN(C2=Nc3cc(Cl)ccc3Nc3ccccc32)CC1 [CLOZAPINE] | 0.042 | 0.058 | 0.081 | 0.101 | > 70 |  |
| CN1C(=O)CN=C(c2ccccc2)c2cc(Cl)ccc21 [DIAZEPAM] |  |  |  |  | > 70 |  |
| O=C(O)Cc1ccccc1Nc1c(Cl)cccc1Cl [DICLOFENAC] |  |  |  |  | > 70 |  |
| COc1ccc([C@@H]2Sc3ccccc3N(CCN(C)C)C(=O)[C@@H]2OC(C)=O)cc1 [DILTIAZEM] | 0.298 | 0.35 | 0.349 | 0.417 | > 70 | 8 |
| CNCCC(Oc1ccc(C(F)(F)F)cc1)c1ccccc1 (stereo not given) [FLUOXETINE] | 0.04 | 0.063 | 0.056 | 0.079 | > 70 |  |
| O=C(CCCN1CCC(O)(c2ccc(Cl)cc2)CC1)c1ccc(F)cc1 [HALOPERIDOL] | 0.124 | 0.164 | 0.161 | 0.223 | > 70 |  |
| CN(C)CCCN1c2ccccc2CCc2ccccc21 [IMIPRAMINE] | 0.105 | 0.172 | 0.181 | 0.22 | > 70 |  |
| Cc1ncc2n1-c1ccc(Cl)cc1C(c1ccccc1F)=NC2 [MIDAZOLAM] | 0.019 | 0.041 | 0.036 | 0.034 | 63 | 9 |
| CN1CCN2c3ncccc3Cc3ccccc3C2C1 (stereo not given) [MIRTAZAPINE] | 0.16 | 0.266 | 0.286 | 0.32 | > 70 |  |
| COC(=O)C1=C(C)NC(C)=C(C(=O)OCCN(C)Cc2ccccc2)C1c1cccc([N+](=O)[O-])c1 (stereo not given) [NICARDIPINE] | 0.003 | 0.008 | 0.005 | 0.008 | > 70 | 7.2 |
| Fc1ccc([C@@H]2CCNC[C@H]2COc2ccc3c(c2)OCO3)cc1 [PAROXETINE] | 0.074 | 0.089 | 0.099 | 0.136 | > 70 | 9.5 |
| CC(C)NCC(O)COc1cccc2ccccc12 (stereo not given) [PROPRANOLOL] | 0.216 | 0.213 | 0.231 | 0.315 | > 70 |  |
| C=C[C@H]1C[N@@]2CC[C@H]1C[C@@H]2[C@@H](O)c1ccnc2ccc(OC)cc12 [QUINIDINE] |  |  |  |  | > 70 |  |
| Cc1nc2n(c(=O)c1CCN1CCC(c3noc4cc(F)ccc34)CC1)CCCC2 [RISPERIDONE] | 0.163 | 0.222 | 0.186 | 0.276 | > 70 |  |
| CC(CN(C)C)CN1c2ccccc2CCc2ccccc21 (stereo not given) [TRIMIPRAMINE] | 0.037 | 0.052 | 0.054 | 0.106 | > 70 | 8.4 |
| CC(=O)CC(c1ccccc1)c1c(O)c2ccccc2oc1=O (stereo not given) [WARFARIN] |  |  |  |  | > 70 |  |
